Measured values as given in ChEMBL document CHEMBL3817755, “Design, synthesis and biological evaluation of indazolepyrimidine based derivatives as anticancer agents with anti-angiogenic and antiproliferative activities” (Medchemcomm, 2016).

How the values were obtained:
[1] = Growth inhibition of human TK10 cells after 48 hrs by SRB assay; format: functional; conditions: TK-10, 48 h
[2] = tested on: 786-0; assay: Growth inhibition of human 786-0 cells at 10 uM after 48 hrs by SRB assay; format: functional; conditions: 786-0, 48 h, read-out: GI
[3] = tested on: HT-29; assay: Growth inhibition of human HT-29 cells after 48 hrs by SRB assay; format: functional; conditions: HT-29, 48 h
[4] = tested on: U-251; assay: Growth inhibition of human U251 cells at 10 uM after 48 hrs by SRB assay; format: functional; conditions: U-251, 48 h, read-out: GI
[5] = Growth inhibition of human BT549 cells after 48 hrs by SRB assay; format: functional; conditions: BT-549, 48 h
[6] = Growth inhibition of human MOLT4 cells after 48 hrs by SRB assay; format: functional; conditions: MOLT-4, 48 h
[7] = target: Mast/stem cell growth factor receptor Kit (Homo sapiens) (UniProt P10721); assay: Inhibition of c-Kit (unknown origin) at 10 uM
Chain of Mast/stem cell growth factor receptor Kit (Homo sapiens) (P10721 whole entry): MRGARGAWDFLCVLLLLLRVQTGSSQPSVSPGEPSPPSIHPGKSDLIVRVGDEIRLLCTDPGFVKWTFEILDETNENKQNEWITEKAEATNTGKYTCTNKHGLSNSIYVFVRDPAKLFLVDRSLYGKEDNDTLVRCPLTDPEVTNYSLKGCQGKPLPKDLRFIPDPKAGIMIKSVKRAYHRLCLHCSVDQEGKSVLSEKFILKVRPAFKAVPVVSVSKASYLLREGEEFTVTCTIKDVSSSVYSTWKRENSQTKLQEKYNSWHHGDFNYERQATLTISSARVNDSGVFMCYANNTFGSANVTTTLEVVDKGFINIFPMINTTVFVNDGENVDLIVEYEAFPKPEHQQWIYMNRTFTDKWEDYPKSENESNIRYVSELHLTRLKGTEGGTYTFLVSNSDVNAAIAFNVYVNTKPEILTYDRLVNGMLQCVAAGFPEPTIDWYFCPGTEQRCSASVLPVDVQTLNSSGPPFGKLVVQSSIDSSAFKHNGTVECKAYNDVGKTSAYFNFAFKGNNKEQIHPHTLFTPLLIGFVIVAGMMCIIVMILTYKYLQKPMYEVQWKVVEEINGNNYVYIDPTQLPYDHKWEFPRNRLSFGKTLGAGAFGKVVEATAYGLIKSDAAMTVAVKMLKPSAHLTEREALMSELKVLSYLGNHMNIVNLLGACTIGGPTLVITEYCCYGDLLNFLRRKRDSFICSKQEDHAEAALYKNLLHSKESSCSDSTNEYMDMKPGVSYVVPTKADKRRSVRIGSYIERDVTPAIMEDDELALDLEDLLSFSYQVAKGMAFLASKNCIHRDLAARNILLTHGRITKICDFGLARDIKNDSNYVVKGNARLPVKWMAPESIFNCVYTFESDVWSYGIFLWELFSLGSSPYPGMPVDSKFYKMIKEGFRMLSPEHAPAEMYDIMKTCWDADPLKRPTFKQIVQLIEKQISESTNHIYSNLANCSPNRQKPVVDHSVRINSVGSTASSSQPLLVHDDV

[8] = Growth inhibition of human UACC257 cells after 48 hrs by SRB assay; format: functional; conditions: UACC-257, 48 h
[9] = Growth inhibition of human LOXIMVI cells at 10 uM after 48 hrs by SRB assay; format: functional; conditions: LOX IMVI, read-out: GI
[10] = Growth inhibition of human BT549 cells at 10 uM after 48 hrs by SRB assay; format: functional; conditions: BT-549, 48 h, read-out: GI
[11] = Growth inhibition of human HOP92 cells after 48 hrs by SRB assay; format: functional; conditions: HOP-92, 48 h
[12] = Growth inhibition of human HOP92 cells at 10 uM after 48 hrs by SRB assay; format: functional; conditions: HOP-92, 48 h, read-out: GI
[13] = tested on: K562; assay: Growth inhibition of human K562 cells at 10 uM after 48 hrs by SRB assay; format: functional; conditions: K562, 48 h, read-out: GI
[14] = tested on: SK-MEL-5; assay: Growth inhibition of human SK-MEL-5 cells after 48 hrs by SRB assay; format: functional; conditions: SK-MEL-5, 48 h
[15] = Growth inhibition of human SNB19 cells at 10 uM after 48 hrs by SRB assay; format: functional; conditions: SNB-19, 48 h, read-out: GI
[16] = tested on: SK-MEL-2; assay: Growth inhibition of human SK-MEL-2 cells at 10 uM after 48 hrs by SRB assay; format: functional; conditions: SK-MEL-2, 48 h, read-out: GI
[17] = Growth inhibition of human UO31 cells at 10 uM after 48 hrs by SRB assay; format: functional; conditions: UO-31, 48 h, read-out: GI
[18] = tested on: SK-MEL-2; assay: Growth inhibition of human SK-MEL-2 cells after 48 hrs by SRB assay; format: functional; conditions: SK-MEL-2, 48 h
[19] = tested on: Malme-3M; assay: Growth inhibition of human MALME-3M cells at 10 uM after 48 hrs by SRB assay; format: functional; conditions: read-out: GI
[20] = tested on: NCI-H226; assay: Growth inhibition of human NCI-H226 cells after 48 hrs by SRB assay; format: functional; conditions: NCI-H226, 48 h
[21] = Growth inhibition of human SF268 cells after 48 hrs by SRB assay; format: functional; conditions: SF-268, 48 h
[22] = tested on: SK-MEL-5; assay: Growth inhibition of human SK-MEL-5 cells at 10 uM after 48 hrs by SRB assay; format: functional; conditions: SK-MEL-5, 48 h, read-out: GI
[23] = tested on: 786-0; assay: Growth inhibition of human 786-0 cells after 48 hrs by SRB assay; format: functional; conditions: 786-0, 48 h
[24] = Growth inhibition of human Hs 578T cells at 10 uM after 48 hrs by SRB assay; format: functional; conditions: read-out: GI
[25] = target: Cyclin-dependent kinase 2 (Homo sapiens) (UniProt P24941); assay: Inhibition of CDK-2 (unknown origin) at 10 uM
[26] = tested on: NCI-H460; assay: Growth inhibition of human NCI-H460 cells after 48 hrs by SRB assay; format: functional; conditions: NCI-H460, 48 h
[27] = Growth inhibition of human RPMI8226 cells after 48 hrs by SRB assay; format: functional; conditions: RPMI-8226, 48 h
[28] = Growth inhibition of human OVCAR4 cells after 48 hrs by SRB assay; format: functional; conditions: OVCAR-4, 48 h
[29] = tested on: ACHN; assay: Growth inhibition of human ACHN cells at 10 uM after 48 hrs by SRB assay; format: functional; conditions: read-out: GI
[30] = target: Aurora kinase A (Homo sapiens) (UniProt O14965); assay: Inhibition of Aurora A (unknown origin) at 10 uM
Chain of Aurora kinase A (Homo sapiens) (O14965 whole entry): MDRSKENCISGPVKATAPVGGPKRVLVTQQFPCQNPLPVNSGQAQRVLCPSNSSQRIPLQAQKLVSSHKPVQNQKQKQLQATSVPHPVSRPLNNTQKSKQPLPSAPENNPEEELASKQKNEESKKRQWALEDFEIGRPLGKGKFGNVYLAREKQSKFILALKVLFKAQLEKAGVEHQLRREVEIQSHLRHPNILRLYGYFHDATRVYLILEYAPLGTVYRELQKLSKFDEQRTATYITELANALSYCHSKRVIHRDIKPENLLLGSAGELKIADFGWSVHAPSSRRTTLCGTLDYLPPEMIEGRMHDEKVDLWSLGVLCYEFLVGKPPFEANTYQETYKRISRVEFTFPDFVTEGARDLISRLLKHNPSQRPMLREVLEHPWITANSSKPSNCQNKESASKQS

[31] = tested on: A498; assay: Growth inhibition of human A498 cells after 48 hrs by SRB assay; format: functional; conditions: A498, 48 h
[32] = tested on: A498; assay: Growth inhibition of human A498 cells at 10 uM after 48 hrs by SRB assay; format: functional; conditions: A498, 48 h, read-out: GI
[33] = tested on: K562; assay: Growth inhibition of human K562 cells after 48 hrs by SRB assay; format: functional; conditions: K562, 48 h
[34] = Growth inhibition of human SF295 cells at 10 uM after 48 hrs by SRB assay; format: functional; conditions: SF-295, 48 h, read-out: GI
[35] = Growth inhibition of human UACC62 cells at 10 uM after 48 hrs by SRB assay; format: functional; conditions: UACC-62, 48 h, read-out: GI
[36] = tested on: CCRF-CEM; assay: Growth inhibition of human CCRF-CEM cells after 48 hrs by SRB assay; format: functional
[37] = Growth inhibition of human UACC257 cells at 10 uM after 48 hrs by SRB assay; format: functional; conditions: UACC-257, 48 h, read-out: GI
[38] = tested on: NCI-H23; assay: Growth inhibition of human NCI-H23 cells at 10 uM after 48 hrs by SRB assay; format: functional; conditions: NCI-H23, 48 h, read-out: GI
[39] = target: Vascular endothelial growth factor receptor 2 (Homo sapiens, UniProt P35968); assay: Inhibition of VEGFR-2 (unknown origin) after 40 mins by Kinase-GloPlus luminescence assay
Chain of Vascular endothelial growth factor receptor 2 (P35968 whole entry): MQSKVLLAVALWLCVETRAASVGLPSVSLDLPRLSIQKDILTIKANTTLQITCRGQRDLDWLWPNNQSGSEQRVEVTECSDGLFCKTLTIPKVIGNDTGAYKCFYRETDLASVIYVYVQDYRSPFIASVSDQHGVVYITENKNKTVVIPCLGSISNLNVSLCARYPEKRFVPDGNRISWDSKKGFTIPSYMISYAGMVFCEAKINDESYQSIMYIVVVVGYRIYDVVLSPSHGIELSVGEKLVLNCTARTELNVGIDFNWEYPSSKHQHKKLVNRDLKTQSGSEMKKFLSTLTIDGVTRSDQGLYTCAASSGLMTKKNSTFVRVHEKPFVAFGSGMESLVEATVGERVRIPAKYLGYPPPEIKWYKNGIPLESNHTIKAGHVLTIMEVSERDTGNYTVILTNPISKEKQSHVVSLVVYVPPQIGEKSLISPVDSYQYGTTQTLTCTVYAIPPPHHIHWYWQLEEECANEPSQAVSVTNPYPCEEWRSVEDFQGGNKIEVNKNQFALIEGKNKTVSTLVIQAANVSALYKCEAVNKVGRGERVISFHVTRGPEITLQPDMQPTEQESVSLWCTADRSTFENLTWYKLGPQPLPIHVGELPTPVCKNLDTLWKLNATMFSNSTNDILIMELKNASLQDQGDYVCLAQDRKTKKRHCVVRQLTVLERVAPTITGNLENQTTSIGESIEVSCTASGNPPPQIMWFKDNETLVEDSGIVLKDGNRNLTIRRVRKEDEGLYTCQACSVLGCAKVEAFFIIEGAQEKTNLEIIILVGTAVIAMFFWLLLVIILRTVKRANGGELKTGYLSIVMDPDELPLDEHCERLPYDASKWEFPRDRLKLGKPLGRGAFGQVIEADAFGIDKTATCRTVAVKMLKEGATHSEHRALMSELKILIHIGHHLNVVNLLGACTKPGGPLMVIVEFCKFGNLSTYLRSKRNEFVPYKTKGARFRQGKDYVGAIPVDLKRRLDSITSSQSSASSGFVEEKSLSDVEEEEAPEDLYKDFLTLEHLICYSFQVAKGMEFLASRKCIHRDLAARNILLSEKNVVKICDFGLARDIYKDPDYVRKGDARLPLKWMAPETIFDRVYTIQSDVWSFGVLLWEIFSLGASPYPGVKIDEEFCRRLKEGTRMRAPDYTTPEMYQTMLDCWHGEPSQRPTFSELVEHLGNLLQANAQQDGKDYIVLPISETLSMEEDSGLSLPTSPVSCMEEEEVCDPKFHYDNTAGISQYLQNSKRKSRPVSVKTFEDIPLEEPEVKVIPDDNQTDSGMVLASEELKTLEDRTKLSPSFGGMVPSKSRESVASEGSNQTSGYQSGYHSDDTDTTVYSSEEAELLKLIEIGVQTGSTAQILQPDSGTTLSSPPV

[40] = read-out: LC50 (the source's name)

## COc1ccc(Nc2nccc(Nc3ccc4[nH]ncc4c3)n2)cc1
[1]
  GI50: 2.45 µM
  TGI: 9.55 µM
[1]; [40]
  CC50: 31 µM
[2]
  inhibition of growth at 10 µM: 56%
[3]
  GI50: 2.36 µM
  TGI: 8.33 µM
[3]; [40]
  CC50: 39.7 µM
[4]
  inhibition of growth at 10 µM: 64%
[5]
  GI50: 3.22 µM
  TGI: 12.1 µM
[5]; [40]
  CC50: 34.8 µM
[6]
  GI50: 1.55 µM
  LC50: > 100 µM
  TGI: 4.67 µM
[7]
  inhibition: 85%
[8]
  GI50: 5.41 µM
  TGI: 16.9 µM
[8]; [40]
  CC50: 41.1 µM
[9]
  inhibition of growth at 10 µM: 81%
[10]
  inhibition of growth at 10 µM: 56%
[11]
  GI50: 3.13 µM
  TGI: 12.9 µM
[11]; [40]
  CC50: 44.5 µM
[12]
  inhibition of growth at 10 µM: 101%
[13]
  inhibition of growth at 10 µM: 95%
[14]
  GI50: 2.01 µM
  TGI: 4.75 µM
[14]; [40]
  CC50: 13.1 µM
[15]
  inhibition of growth at 10 µM: 40%
[16]
  inhibition of growth at 10 µM: 70%
[17]
  inhibition of growth at 10 µM: 84%
[18]
  GI50: 2.4 µM
  LC50: 29.8 µM
  TGI: 6.39 µM
[19]
  inhibition of growth at 10 µM: 24%
[20]
  GI50: 2.3 µM
  TGI: 5.77 µM
[20]; [40]
  CC50: > 100 µM
[21]
  GI50: 4.2 µM
  TGI: 28.6 µM
[21]; [40]
  CC50: > 100 µM
[22]
  inhibition of growth at 10 µM: 98%
[23]
  GI50: 1.74 µM
  TGI: 4.75 µM
[23]; [40]
  CC50: 16.1 µM
[24]
  inhibition of growth at 10 µM: 53%
[25]
  inhibition: 71%
[26]
  GI50: 2.7 µM
  LC50 (50% lethal concentration): > 100 µM
  TGI: 38.2 µM
[27]
  GI50: 1.99 µM
  LC50: > 100 µM
  TGI: 4.67 µM
[28]
  GI50: 2.99 µM
  TGI: 11.8 µM
[28]; [40]
  CC50: 55.6 µM
[29]
  inhibition of growth at 10 µM: 71%
[30]
  inhibition: 91%
[31]
  GI50: 4.62 µM
  TGI: 17.2 µM
[31]; [40]
  CC50: 41.4 µM
[32]
  inhibition of growth at 10 µM: 63%
[33]
  GI50: 2.1 µM
  LC50: > 100 µM
  TGI: 4.67 µM
[34]
  inhibition of growth at 10 µM: 52%
[35]
  inhibition of growth at 10 µM: 61%
[36]
  GI50: 2.61 µM
  LC50 (concentration for 50% net cell kill): > 100 µM
  TGI: 4.67 µM
[37]
  inhibition of growth at 10 µM: 54%
[38]
  inhibition of growth at 10 µM: 60%
[39]
  IC50: 0.117 µM

## Clc1ccc(Nc2nccc(Nc3ccc4[nH]ncc4c3)n2)cc1
[2]
  inhibition of growth at 10 µM: 43%
[4]
  inhibition of growth at 10 µM: 41%
[9]
  inhibition of growth at 10 µM: 55%
[10]
  inhibition of growth at 10 µM: 47%
[12]
  inhibition of growth at 10 µM: 101%
[13]
  inhibition of growth at 10 µM: 108%
[15]
  inhibition of growth at 10 µM: 22%
[17]
  inhibition of growth at 10 µM: 83%
[19]
  inhibition of growth at 10 µM: 12%
[22]
  inhibition of growth at 10 µM: 74%
[24]
  inhibition of growth at 10 µM: 38%
[29]
  inhibition of growth at 10 µM: 53%
[32]
  inhibition of growth at 10 µM: 61%
[34]
  inhibition of growth at 10 µM: 29%
[35]
  inhibition of growth at 10 µM: 66%
[37]
  inhibition of growth at 10 µM: 12%
[38]
  inhibition of growth at 10 µM: 54%

## Fc1ccc(Nc2nccc(Nc3ccc4[nH]ncc4c3)n2)cc1
[2]
  inhibition of growth at 10 µM: 32%
[4]
  inhibition of growth at 10 µM: 35%
[9]
  inhibition of growth at 10 µM: 32%
[10]
  inhibition of growth at 10 µM: 33%
[12]
  inhibition of growth at 10 µM: 81%
[13]
  inhibition of growth at 10 µM: 61%
[15]
  inhibition of growth at 10 µM: 12%
[16]
  inhibition of growth at 10 µM: 24%
[17]
  inhibition of growth at 10 µM: 61%
[19]
  inhibition of growth at 10 µM: 3%
[22]
  inhibition of growth at 10 µM: 66%
[24]
  inhibition of growth at 10 µM: 35%
[29]
  inhibition of growth at 10 µM: 47%
[32]
  inhibition of growth at 10 µM: 51%
[34]
  inhibition of growth at 10 µM: 11%
[35]
  inhibition of growth at 10 µM: 29%
[37]
  inhibition of growth at 10 µM: 26%
[38]
  inhibition of growth at 10 µM: 27%

## NS(=O)(=O)c1ccc(Nc2nccc(Nc3ccc4[nH]ncc4c3)n2)cc1
[2]
  inhibition of growth at 10 µM: -1%
[4]
  inhibition of growth at 10 µM: 19%
[9]
  inhibition of growth at 10 µM: 14%
[10]
  inhibition of growth at 10 µM: -6%
[12]
  inhibition of growth at 10 µM: 47%
[13]
  inhibition of growth at 10 µM: 25%
[15]
  inhibition of growth at 10 µM: 4%
[16]
  inhibition of growth at 10 µM: 4%
[17]
  inhibition of growth at 10 µM: 18%
[19]
  inhibition of growth at 10 µM: -3%
[22]
  inhibition of growth at 10 µM: 11%
[24]
  inhibition of growth at 10 µM: 17%
[29]
  inhibition of growth at 10 µM: -7%
[32]
  inhibition of growth at 10 µM: 32%
[34]
  inhibition of growth at 10 µM: 2%
[35]
  inhibition of growth at 10 µM: 11%
[37]
  inhibition of growth at 10 µM: 14%
[38]
  inhibition of growth at 10 µM: 14%
